In US20120053184A1, “SALTS OF 3-(1H-IND0L-3-YL)-4-[2-(4-METHYL-PIPERAZIN-I-YL)-QUINAZOLIN-4-YL]-PYRROLE-2, 5-DI ONE” (priority 2007, published 2012):

What was measured:
[1] = stability in the solid state (heat, heat/humidity, light); type: physicochemical; settings: after one week at 80° C. in a close container, or at 80° C./75% r.h. in open container, or upon exposure to light (1200 kLux, 300-800 nm)
Text: Criteria for selecting the salts of the invention include i) dissolution in water, with measurement of degradation products, and decoloration, ii) stability against heat in solid state, iii) exposure to light (e.g. Xenon light), iv) corosivity to steel.

[2] = solubility in aqueous media; type: physicochemical
Text: Therefore it is not straightforward or easy to formulate it into pharmaceutical compositions, e.g. for oral administration.

Compound	stability in the solid state [1]	solubility in aqueous media [2]
CN1CCN(c2nc(C3=C(c4c[nH]c5ccccc45)C(=O)NC3=O)c3ccccc3n2)CC1.O=C(O)/C=C\C(=O)O [maleate, Maleate Salt of 3-(1.H.-indol-3-yl)-4-[2-(4-methyl-piperazin-1-yl)-quinazolin-4-yl]-pyrrole-2,5-dione]	very good stability	–
CN1CCN(c2nc(C3=C(c4c[nH]c5ccccc45)C(=O)NC3=O)c3ccccc3n2)CC1 [free base, 3-(1.H.-indol-3-yl)-4-[2-(4-methyl-piperazin-1-yl)-quinazolin-4-yl]-pyrrole-2,5-dione]	–	relatively low solubility
CN1CCN(c2nc(C3=C(c4c[nH]c5ccccc45)C(=O)NC3=O)c3ccccc3n2)CC1.CS(=O)(=O)O [mesylate salt, Mesylate Salt of 3-(1.H.-indol-3-yl)-4-[2-(4-methyl-piperazin-1-yl)-quinazolin-4-yl]-pyrrole-2,5-dione]	very good stability	–
